Data taken from paper PMC7663056, “Crystal Structure and Inhibitor Identifications Reveal Targeting Opportunity for the Atypical MAPK Kinase ERK3” (International Journal of Molecular Sciences, 2020).
Where two headings read alike, the source gives them in different places.

How the values were obtained:
[1] = target: T1, Full length ERK3 (NanoLuc fusion) (Homo sapiens, UniProt Q16659); experiment: Cell-based NanoBRET assay (tracer displacement) in HEK293T cells; conditions: for remaining activity at 5 µM / remaining activity at 10 µM: HEK-293T, 2 h, Table S3, ratio to DMSO control; for remaining activity at 5 µM: single dose 5 µM, read-out: Norm.BRET 5 µM; for remaining activity at 10 µM: single dose 10 µM, read-out: Norm.BRET 10 µM; for IC50: Figure 2F, HEK293T cells, 0.25 µM Tracer K5, 2 h, averaged over two replicates
T1 construct: Full length ERK3 was cloned into pFC32K (Promega, Madison, WI, USA); expressed in transfected cells; host or cells: HEK293T
T1 sequence (Q16659 whole entry, the tested form may be a part): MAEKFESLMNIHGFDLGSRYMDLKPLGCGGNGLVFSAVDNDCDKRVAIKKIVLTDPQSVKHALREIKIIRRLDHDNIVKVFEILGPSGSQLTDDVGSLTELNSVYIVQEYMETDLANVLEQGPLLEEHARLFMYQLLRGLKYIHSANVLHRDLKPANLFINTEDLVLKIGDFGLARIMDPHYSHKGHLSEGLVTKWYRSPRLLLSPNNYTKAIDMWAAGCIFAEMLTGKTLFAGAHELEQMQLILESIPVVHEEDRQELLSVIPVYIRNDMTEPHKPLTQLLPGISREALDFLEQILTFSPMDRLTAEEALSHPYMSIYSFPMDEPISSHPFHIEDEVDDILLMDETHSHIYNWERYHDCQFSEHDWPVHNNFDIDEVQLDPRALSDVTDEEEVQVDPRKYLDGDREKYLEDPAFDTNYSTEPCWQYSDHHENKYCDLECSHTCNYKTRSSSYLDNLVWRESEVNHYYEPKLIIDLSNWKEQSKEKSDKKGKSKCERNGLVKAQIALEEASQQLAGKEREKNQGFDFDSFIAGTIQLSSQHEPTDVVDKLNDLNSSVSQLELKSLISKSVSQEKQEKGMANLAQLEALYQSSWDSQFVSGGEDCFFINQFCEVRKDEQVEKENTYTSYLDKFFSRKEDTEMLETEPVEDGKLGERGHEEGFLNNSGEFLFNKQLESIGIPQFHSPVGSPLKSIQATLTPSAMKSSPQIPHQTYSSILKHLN
Procedure: Full length ERK3 was cloned into pFC32K (Promega, Madison, WI, USA) for the expression of an […] NanoLuc fusion, and the plasmid was transfected into HEK293T cells cultured in DMEM (Gibco) supplemented with 10% fetal bovine serum (Gibco) and penicillin/streptamycin (Gibco, Thermo Fisher Scientific, Waltham, MA, USA). NanoBRET assays were performed using protocol published previously. Briefly, after transfection and 20 h incubation, cells were harvested and subsequently resuspended in OptiMEM (Gibco). […] BRET luminescence (450 nm for donor emission and 610 nm for BRET signal) was measured using PHERAstar FSX plate reader (BMG Labtech, Ortenberg, Germany). Milli-BRET units (mBU) were calculated as a ratio between the BRET signal and the overall measured luminescence. A dose–response fitting was applied, and the corresponding IC50 values were calculated in Prism software. For the single concentration screening, the normalized BRET values were calculated from the ratio between the BRET signals of the tested inhibitor and that of the DMSO control.

[2] = target: T2, ERK3 kinase domain (Homo sapiens, UniProt Q16659); experiment: Melting temperature assay (differential scanning fluorimetry, DSF); type: binding; conditions: for ΔTm (melting temperature shift): DSF screen of 1454 kinase inhibitors
T2 construct: The kinase domain of ERK3 (M9-I327) was subcloned into pNIC28–Bsa4; His6 (N, cleaved yes); made in house; host or cells: E. coli (co-expressed with lambda phosphatase)
T2 sequence (Q16659 9-327): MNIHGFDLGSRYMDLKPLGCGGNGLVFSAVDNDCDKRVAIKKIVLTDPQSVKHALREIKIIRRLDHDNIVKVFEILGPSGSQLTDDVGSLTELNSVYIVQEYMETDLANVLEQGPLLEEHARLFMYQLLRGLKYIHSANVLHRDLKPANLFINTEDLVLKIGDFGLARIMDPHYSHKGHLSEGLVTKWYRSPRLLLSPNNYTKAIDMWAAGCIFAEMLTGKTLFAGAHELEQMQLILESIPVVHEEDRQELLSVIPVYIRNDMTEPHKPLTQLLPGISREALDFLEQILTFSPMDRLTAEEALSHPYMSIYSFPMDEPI
Procedure: The ERK3 kinase domain at 2 µM in 10 mM HEPES pH 7.5 and 500 mM NaCl was mixed with 10 µM inhibitors and SyPRO Orange at 1:1000 dilution. After 10 min incubation at room temperature, the fluorescence signal, which increases upon the temperature-dependent unfolding of ERK3 protein, was measured using Mx3005p real-time PCR machine (Stratagene, San Diego, CA, USA). The ∆Tm shifts were calculated using protocol described previously.

[3] = target: T2, ERK3 kinase domain; experiment: Isothermal titration calorimetry (ITC); type: binding; conditions: for Kd: Figure 2E, 15 °C, averaged over two replicates, read-out: ITC dissociation constant Kd
Procedure: The integrated heat of titration was calculated and fitted into an independent binding model using NanoAnalyzer software. Thermodynamic parameters, the dissociation constant (Kd), and stoichiometry (n) were an average over duplicates.

[4] = target: T2, ERK3 kinase domain; experiment: Mass spectrometry analyses of covalent adducts (intact mass, chymotrypsin digestion); type: binding; conditions: kinase and inhibitor at 1:1 ratio, 30 min, room temperature
Procedure: The protein was purified using C8 stage tips, and the intact mass was analysed using LC-ESI TOF (Agilient, Santa Clara, CA, USA) and Bioconfirm software (Agilient). Chymotrypsin digestion followed by mass spectrometry analysis was performed to identify the residue that forms a covalent bond with the inhibitors. […] The protein was subsequently precipitated by 50% […], and the resulting pellet was washed twice with cold acetone. Chymotrypsin (Sigma Aldrich) digestion was performed in 50 mM (NH4)2CO3 overnight at 37 °C. The solution after proteolysis were spotted in quadruplets onto the 4-chloro-α-cyanocinnamic acid matrix (Sigma Aldrich; 3 mg mL^−1 in TFA-acidified 50% acetonitrile), and the m/z ratios were analysed on a Thermo Fisher MALDI-LTQ Orbitrap XL spectrometer.

[5] = Table S3, DSF assay values shown for comparison, read-out: ΔTm ERK3
[6] = Table S2, 10 µM inhibitors, read-out: ΔTm Initial Screen
[7] = Table S2, average of two repeats ± standard deviation, read-out: ΔTm Follow Up

remaining activity at 5 µM ([1]; HEK293T) [%] | remaining activity at 10 µM ([1]; HEK293T) [%] | ΔTm at 10 µM [2, 5] [°C] | ΔTm at 10 µM [2, 6] [°C] | ΔTm at 10 µM [2, 7] [°C] | SMILES | also measured
76.8 ± 9.4 | 49.5 ± 4.6 | -0.09 |  |  | CN(c1ncccc1CNc1nc(Nc2ccc3c(c2)CC(=O)N3)ncc1C(F)(F)F)S(C)(=O)=O [PF-00562271] | 
 |  |  | 1.04 | 0.8 ± 0.4 | CS(=O)(=O)CCNCc1ccc(-c2ccc3ncnc(Nc4ccc(OCc5ccccc5)c(Br)c4)c3c2)o1 [GW580496A] | 
 |  |  | 2.81 | 2.5 ± 0.3 | CN1CCN(c2ccc(Nc3nccc(-c4cnn5ncccc45)n3)cc2F)CC1 [CAF052] | IC50 [1]: 20 ± 13 nM
 |  |  |  |  | CC(C)(C)c1cc(NC(=O)Nc2ccc(-c3cn4c(n3)sc3cc(OCCN5CCOCC5)ccc34)cc2)no1 [Quizartinib] | ΔTm Initial Screen ([2]; Table S2, 10 µM inhibitors): 1.12 °C
46.6 ± 2.2 | 36.9 ± 0.7 | 0.3 ± 0.2 |  |  | Cc1cnc(Nc2ccc(N3CCN(C)CC3)cc2)nc1Nc1cccc(S(=O)(=O)NC(C)(C)C)c1 [TG101209] | IC50 [1]: 1540 ± 214 nM
 |  |  | 1.1 |  | Fc1ccc(-c2ncn(C3CCNCC3)c2-c2ccnc(Oc3ccc4c(c3)OCO4)n2)cc1 [SB-250715] | 
 |  |  |  |  | CNC(=O)c1cc(Oc2ccc(NC(=O)Nc3ccc(Cl)c(C(F)(F)F)c3)cc2)ccn1 [Sorafenib] | ΔTm at 10 µM ([2]; read-out: ΔTm Follow Up): 0 °C; ΔTm at 10 µM ([2]; read-out: ΔTm Initial Screen): 1.2 °C
 |  |  | 2.55 | 2.5 ± 0.2 | COc1cccc(-c2c[nH]c3c(N/N=C/c4ccncc4)ncnc23)c1 [GW814408X] | 
 |  |  | 1.04 | 1.1 ± 0.2 | NS(=O)(=O)c1ccc(N/N=C2\C(=O)Nc3ccc4ncccc4c32)cc1 [GW305178X] | 
 |  |  |  |  | CN1CCN(c2ccc(Nc3nccc(-c4cnn5ncccc45)n3)cc2)CC1 [CAF045] | ΔTm at 10 µM ([2]; read-out: ΔTm Follow Up): 1.4 ± 0.5 °C; ΔTm at 10 µM ([2]; read-out: ΔTm Initial Screen): 1.61 °C
80.6 ± 6.7 | 49.4 ± 1.1 | 0.02 |  |  | CC(C)CCN1c2nc(Nc3cc(F)c(O)c(F)c3)ncc2N(C)C(=O)C1C (stereo not shown) [BI-D1870] | 
 |  |  | 2.05 | 3.1 ± 0.3 | C=CC(=O)Nc1cc2c(Nc3ccc(F)c(Cl)c3)ncnc2cc1OCCCN1CCOCC1 [Canertinib] | 
54.2 ± 6.4 | 28.1 ± 5.5 | 0.6 ± 0.2 |  |  | Nc1cccc(-c2cc3c(Oc4cccc(O)c4)ncnc3[nH]2)c1 [TWS119] | IC50 [1]: 601 ± 29 nM; Kd [3]: 1930 ± 182 nM
 |  |  | 1.12 | -0.3 ± 0.3 | CCCN1CCC(c2ccc(Nc3nc(Nc4cc(F)ccc4C(N)=O)c4cc[nH]c4n3)c(OC)c2)CC1 [GSK1326255A] | 
40 ± 1.6 | 38.8 ± 3.1 | 0.4 ± 0.3 |  |  | CCN1CCN(Cc2ccc(-c3cc4c(N[C@H](C)c5ccccc5)ncnc4[nH]3)cc2)CC1 [AEE788] | IC50 [1]: 145 ± 45 nM
 |  |  |  |  | CN(C)C/C=C/C(=O)Nc1cccc(C(=O)Nc2ccc(Nc3nccc(-c4cccnc4)n3)cc2)c1 [JNK-IN-7] | IC50 [1]: 112 ± 23 nM; covalent adduct formation (intact mass shift) [4]: covalent formation, albeit only partially
 |  |  | 1.17 |  | O=C(NC(NC(=S)Nc1ccc(F)c([N+](=O)[O-])c1)C(Cl)(Cl)Cl)C(c1ccccc1)c1ccccc1 (stereo not shown) [CGK733] | 
90.8 ± 3 | 58.5 ± 0.4 | -0.15 |  |  | Cc1cc(Nc2cc(N3CCN(C)CC3)nc(/C=C/c3ccccc3)n2)n[nH]1 [ENMD-2076] | 

remaining activity at 5 µM ([1]; HEK293T) [%] | remaining activity at 10 µM ([1]; HEK293T) [%] | ΔTm at 10 µM [2, 5] [°C] | ΔTm at 10 µM [2, 6] [°C] | ΔTm at 10 µM [2, 7] [°C] | SMILES | also measured
67.8 ± 10.6 | 45.5 ± 4.2 | -3.92 ± 0.3 |  |  | Oc1ccc2ccccc2c1SSc1c(O)ccc2ccccc12 [IPA-3] | 
28.8 ± 2.4 | 19.6 ± 5.7 |  | 1.67 | 1.7 ± 0.4 | O=C(c1ccc(Nc2nccc(-c3cc4ccccc4s3)n2)cc1)N1CCC(N2CCCC2)CC1 [IKK-16] | IC50 [1]: 116 ± 26 nM; Kd [3]: 1850 ± 915 nM
56.8 ± 2.8 | 31.3 ± 0.1 |  | 1.45 | 0.1 ± 0.3 | CCn1cc(-c2ccnc3[nH]c(-c4cccc(CN(C)C)c4)cc23)c(-c2ccc(NC(=O)N(C)C)cc2)n1 [GSK1070916] | IC50, cell-based NanoBRET assay ([1]; HEK293T): did not produce a BRET signal
 |  |  |  |  | O=C1Nc2ccc(I)cc2C1=Cc1cc(Br)c(O)c(Br)c1 [GW5074] | ΔTm at 10 µM ([2]; read-out: ΔTm Initial Screen): 1.36 °C
 |  |  | 1.04 |  | C=CC(=O)Nc1cccc(Nc2nc(Nc3ccc(Oc4ccnc(C(=O)NC)c4)cc3)ncc2F)c1 [CNX-774] | 
23.1 ± 0.1 | 17 ± 0.1 | 0.2 ± 0.1 |  |  | Nc1nc(Nc2ccc(S(N)(=O)=O)cc2)nn1C(=O)c1c(F)cccc1F [JNJ-7706621] | 
 |  |  | 1.7 | 1 ± 0.1 | O=C(Nc1ccc(Nc2nccc(Nc3cc(C4CCCC4)[nH]n3)n2)cc1)Nc1cccc(C(F)(F)F)c1 [CD532] | 
 |  |  | 1.15 |  | O=C(/C=C/c1ccc(O)c(O)c1)c1ccc(O)cc1O [Butein] | 
93.3 ± 4 | 61.7 ± 2.2 | -0.17 |  |  | Cc1ncc(-c2ccnc(Nc3ccc(S(C)(=O)=O)cc3)n2)n1C(C)C [AZD5438] | 
 |  |  |  |  | O=C(Nc1cc(C(F)(F)F)cc(C(F)(F)F)c1)c1cc(Cl)ccc1O [IMD0354] | ΔTm at 10 µM ([2]; read-out: ΔTm Initial Screen): 1.21 °C
50.8 ± 4.5 | 36.2 ± 6.3 | -0.1 ± 0.2 |  |  | COc1cc2ncnc(Nc3ccc(O)c(Br)c3)c2cc1OC [WHI-P154] | IC50 [1]: 540 ± 129 nM
88.2 ± 10.3 | 60.1 ± 16.9 | 0.51 |  |  | NC(=O)c1cnc(N[C@@H]2CCCC[C@@H]2N)nc1Nc1cccc(-n2nccn2)c1 [PRT062607] | 
 |  |  |  |  | COc1cccc(-n2ncc3c(N/N=C/c4ccc(C(=O)NCCN(C)C)cc4)ncnc32)c1 [GW784307A] | ΔTm at 10 µM ([2]; read-out: ΔTm Initial Screen): 1.3 °C
 |  |  | 1.96 | 1.2 ± 0.6 | COc1ccc(Cl)c(Nc2nc3ccccc3nc2NS(=O)(=O)c2cccc(NC(=O)C(C)(C)N)c2)c1 [XL147] | 
64.9 ± 3.8 | 52.9 ± 2.8 | 0.26 |  |  | Cc1nc(N)sc1-c1ccnc(Nc2ccc(N3CCOCC3)cc2)n1 [CYC116] | 
40.9 | 26.8 ± 0.5 |  | 2.11 | 2.5 ± 0.3 | CNC(=O)c1nn(C)c2c1C(C)(C)Cc1cnc(Nc3ccc(N4CCN(C)CC4)cc3)nc1-2 [Milciclib] | IC50 [1]: 27 ± 5 nM; Kd [3]: 245 ± 60 nM
71.7 ± 7.8 | 49.8 ± 4.1 | 0.15 |  |  | CC(C)(C)c1cnc(CSc2cnc(NC(=O)C3CCNCC3)s2)o1 [SNS-032] | 
 |  |  | 3.83 | 3.3 ± 0.2 | CN1CCN(c2ccc(Nc3nccc(-c4cnn5ncccc45)n3)cc2C#N)CC1 [CAF078] | IC50 [1]: 9 ± 1 nM; ITC dissociation constant (Kd), in words [3]: low nanomolar affinities; Kd [3]: 44 ± 26 nM; ΔTm (melting temperature shift) [2]: 3.1–3.8 °C

SMILES | remaining activity at 5 µM ([1]; HEK293T) [%] | remaining activity at 10 µM ([1]; HEK293T) [%] | ΔTm at 10 µM [2, 5] [°C] | ΔTm at 10 µM [2, 6] [°C] | ΔTm at 10 µM [2, 7] [°C] | also measured
O=C(Nc1c[nH]nc1-c1nc2ccc(CN3CCOCC3)cc2[nH]1)NC1CC1 [AT9283] | 16.1 ± 3.9 | 10.6 ± 1.5 |  | 3.08 | 3.1 ± 0.1 | IC50 [1]: 15 ± 7 nM; ITC dissociation constant (Kd), in words [3]: low nanomolar affinities; Kd [3]: 80 ± 5 nM; ΔTm (melting temperature shift) [2]: 3.1–3.8 °C
COc1cc2ncnc(Nc3cccc(Cl)c3)c2cc1OC [AG-1478] | 73.5 ± 1.1 | 41.7 | 0.06 |  |  | 
O=C(Nc1cccc(Nc2ncc(Br)c(NCCc3cnc[nH]3)n2)c1)N1CCCC1 [BX-912] | 74.1 ± 1.5 | 53.2 ± 1.7 | -0.12 |  |  | 
